Laboratory results published in ChEMBL document CHEMBL1773024, “New 29-nor-cycloartanes with a 3,4-seco- and a novel 2,3-seco-structure from the leaves of Sinocalycanthus chinensis” (Bioorg Med Chem, 2011).
Values after ≈ are worked out from the molar mass of the structure shown.

Key:
K562 [1] = experiment: Cytotoxicity against human K562 cells after 6 hrs by MTT assay; format: functional, cell-based; conditions: K562, 6 h
[2] = Cytotoxicity against human colchicine-resistant KB-C2 cells after 48 hrs by MTT assay; conditions: KB-C2, 48 h
KB = experiment: Cytotoxicity against human KB cells after 48 hrs by MTT assay
K562 [3] = experiment: Cytotoxicity against human doxorubicin-resistant K562 cells after 6 hrs by MTT assay; format: functional, cell-based; conditions: K562, 6 h
MCF7 = experiment: Cytotoxicity against human MCF7 cells after 48 hrs by MTT assay; conditions: MCF7, 48 h
[4] = Cytotoxicity against human KB-C2 cells after 48 hrs by MTT assay; conditions: KB-C2, 48 h

Row | SMILES | IC50 (K562 [1]) [µg/mL] | IC50 [2] [µg/mL] | IC50 (KB) [µg/mL] | IC50 (K562 [3]) [µg/mL] | IC50 (MCF7) [µg/mL] | IC50 [4] [µg/mL]
1 | C=C[C@@H]1CC[C@@H]2[C@]3(CC[C@]4(C)[C@@H]([C@H](C)[C@H]5CC=C(C)C(=O)O5)CC[C@@]24C)C[C@]13CCC(=O)OC [SINOCALYCANCHINENSIN E] | 22.4 (≈ 47.8 µM) | 1.51 (≈ 3.22 µM) | 62.2 (≈ 133 µM) | 20.5 (≈ 43.7 µM) | > 100 | 49.2 (≈ 105 µM)
2 | COc1cccc2c1C(=O)c1c(O)c3c(c(O)c1C2=O)C[C@@](O)(C(C)=O)C[C@@H]3O[C@H]1C[C@H](N)[C@H](O)[C@H](C)O1 [DAUNORUBICIN] | 1.49 (≈ 2.82 µM) | 11.6 (≈ 22 µM) | 0.45 (≈ 0.853 µM) | 8.5 (≈ 16.1 µM) | 0.033 (≈ 0.0626 µM) | 7.9 (≈ 15 µM)
3 | C/C(=C/CC[C@@H](C)[C@H]1CC[C@@]2(C)[C@@H]3CC[C@H]4[C@H](C)C(=O)CC[C@@]45C[C@@]35CC[C@]12C)C(=O)O [SINOCALYCANCHINENSIN G] | 14.8 (≈ 33.6 µM) | 21.4 (≈ 48.6 µM) | 19.9 (≈ 45.2 µM) | 7.3 (≈ 16.6 µM) | 23.7 (≈ 53.8 µM) | 21.6 (≈ 49 µM)
4 | C=C[C@@H]1CC[C@@H]2[C@]3(CC[C@]4(C)[C@@H]([C@H](C)CC/C=C(/C)C(=O)O)CC[C@@]24C)C[C@]13CCC(=O)O [SINOCALYCANCHINENSIN A] | 29.9 (≈ 65.5 µM) | 33.4 (≈ 73.1 µM) | 30.7 (≈ 67.2 µM) | 38.9 (≈ 85.2 µM) | 61.6 (≈ 135 µM) | 30.4 (≈ 66.6 µM)
5 | C/C(=C\CC[C@@H](C)[C@H]1CC[C@@]2(C)[C@@H]3CC[C@H]4[C@H](C)C(=O)CC[C@@]45C[C@@]35CC[C@]12C)C(=O)O [SINOCALYCANCHINENSIN H] | 14.8 (≈ 33.6 µM) | 17.2 (≈ 39 µM) | 18.6 (≈ 42.2 µM) | 19.4 (≈ 44 µM) | 18.6 (≈ 42.2 µM) | 18.8 (≈ 42.7 µM)
6 | C=C[C@@H]1CC[C@@H]2[C@]3(CC[C@]4(C)[C@@H]([C@H](C)CC/C=C(/C)C(=O)O)CC[C@@]24C)C[C@]13CCC(=O)OC [SINOCALYCANCHINENSIN B] | 16.5 (≈ 35.1 µM) | 18.9 (≈ 40.2 µM) | 20.9 (≈ 44.4 µM) | 17.6 (≈ 37.4 µM) | 35.7 (≈ 75.8 µM) | 22.2 (≈ 47.2 µM)
7 | C=C[C@@H]1CC[C@@H]2[C@]3(CC[C@]4(C)[C@@H]([C@H](C)CC/C=C(/C)C(=O)O)CC[C@@]24C)C[C@]13CCC(=O)OC/C=C(\C)CCC[C@H](C)CCC[C@H](C)CCCC(C)C [SINOCALYCANCHINENSIN C] | > 100 | > 100 | > 100 | – | > 100 | > 100
8 | C=C[C@@H]1CC[C@@H]2[C@]3(CC[C@]4(C)[C@@H]([C@H](C)[C@H]5CC=C(C)C(=O)O5)CC[C@@]24C)C[C@]13CCC(=O)O [SINOCALYCANCHINENSIN D] | 16.7 (≈ 36.7 µM) | 25.6 (≈ 56.3 µM) | 31.7 (≈ 69.7 µM) | 7 (≈ 15.4 µM) | 39.2 (≈ 86.2 µM) | 26.4 (≈ 58.1 µM)
9 | COC(=O)[C@@H](C)[C@@H]1CC[C@@H]2[C@]3(CC[C@]4(C)[C@@H]([C@H](C)CC/C=C(/C)C(=O)O)CC[C@@]24C)C[C@]13CCOC(C)=O [SINOCALYCANCHINENSIN F] | 13.2 (≈ 24.9 µM) | 17.5 (≈ 33 µM) | 16.6 (≈ 31.3 µM) | 19.5 (≈ 36.7 µM) | 33.8 (≈ 63.7 µM) | 21.7 (≈ 40.9 µM)
